Results reported in PubChem BioAssay (NCI).
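Briefly, cells in 96-well plates were exposed to five compound concentrations for 48 h, and endpoints were estimated by linear interpolation. TGI denotes the concentration required for complete inhibition of growth.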

What was measured:
Test in all cases: DTP human tumour cell line panel, 48 h
IGROV1 ovarian = tested on: IGROV1 ovarian
UACC-257 melanoma = tested on: UACC-257 melanoma
EKVX NSCLC = tested on: EKVX NSCLC
SNB-75 CNS = tested on: SNB-75 CNS
SW-620 colon = tested on: SW-620 colon
HCT-116 colon = tested on: HCT-116 colon
RXF 393 renal = tested on: RXF 393 renal
MOLT-4 leukemia = tested on: MOLT-4 leukemia
MCF7 breast = tested on: MCF7 breast
SK-MEL-2 melanoma = tested on: SK-MEL-2 melanoma
SK-MEL-28 melanoma = tested on: SK-MEL-28 melanoma
OVCAR-5 ovarian = tested on: OVCAR-5 ovarian
CAKI-1 renal = tested on: CAKI-1 renal
SF-268 CNS = tested on: SF-268 CNS
NCI-H460 lung = tested on: NCI-H460 lung
CCRF-CEM leukemia = tested on: CCRF-CEM leukemia
SK-MEL-5 melanoma = tested on: SK-MEL-5 melanoma
HOP-92 NSCLC = tested on: HOP-92 NSCLC

| Structure (SMILES) | TGI (IGROV1 ovarian) [µM] | TGI (UACC-257 melanoma) [µM] | TGI (EKVX NSCLC) [µM] | TGI (SNB-75 CNS) [µM] | TGI (SW-620 colon) [µM] | TGI (HCT-116 colon) [µM] | TGI (RXF 393 renal) [µM] | TGI (MOLT-4 leukemia) [µM] | TGI (MCF7 breast) [µM] | TGI (SK-MEL-2 melanoma) [µM] | TGI (SK-MEL-28 melanoma) [µM] | TGI (OVCAR-5 ovarian) [µM] | TGI (CAKI-1 renal) [µM] | TGI (SF-268 CNS) [µM] | TGI (NCI-H460 lung) [µM] | TGI (CCRF-CEM leukemia) [µM] | TGI (SK-MEL-5 melanoma) [µM] | TGI (HOP-92 NSCLC) [µM] |
| --- | --- | --- | --- | --- | --- | --- | --- | --- | --- | --- | --- | --- | --- | --- | --- | --- | --- | --- |
| CNNC1=NS(=O)(=O)c2cc(C(=O)OC)c(Cl)cc2S1 | > 10 | > 10 | > 10 | > 10 | > 10 | > 10 | > 10 | > 10 | > 10 | > 10 | > 10 | > 10 | > 10 | > 10 | > 10 | > 10 | > 10 |  |
| O=C(C1=CCC2(CC1)OCCO2)N(Cc1ccccc1)c1ccccc1I |  | 46.7 | 31.5 | 37 | > 100 | 37.7 | 77.6 | > 100 | 72.4 | 38.7 | 46.2 | 36.7 | 88.3 | 27.9 | 46.4 |  | 30.1 | 43.2 |
| c1csc(-c2cc(-c3ccsc3)c(-c3cccs3)s2)c1 |  | > 100 | > 100 | > 100 | > 100 | > 100 | > 100 | > 100 | 89.8 |  | > 100 | > 100 | > 100 | > 100 | > 100 | > 100 | > 100 | > 100 |
| N[C@H]1CCc2c1nc1c(c2-c2ccccc2)CC[C@@H]1N | 31.4 |  | > 100 | 29.5 | 27.5 | 45.6 |  | 27.6 | 64.3 | 40.1 |  | 59.7 | 33.7 | 59.8 | > 100 | 40.7 | 29.7 | > 100 |
| CCCCNC(=O)C1=C(C)NC(C)=C(C(=O)NCCCC)C1 | > 100 | > 100 | > 100 | > 100 | > 100 | > 100 | > 100 | > 100 | > 100 | > 100 | > 100 | > 100 | > 100 | > 100 | > 100 |  | > 100 | > 100 |
| C1CSCCSS[C@@H]2CCCCC2SC1 (some centres not stated) | > 100 | > 100 | > 100 | > 100 | > 100 | > 100 |  | > 100 | > 100 |  | > 100 | > 100 |  | > 100 | > 100 | > 100 | > 100 | 97.8 |
| Fc1ccc(C(OCCN2CC3CC2CN3CCCc2ccccc2)c2ccc(F)cc2)cc1 (configuration not stated) | 22.7 | 12.7 | 18.5 | 7.2 | 24.1 | 18.5 |  | 12.5 | 18.8 | 21.8 | 9.09 | 23.5 | 24.6 | 22.4 | 17.3 | 21.7 | 3.39 | 26.7 |
| CC(C)Nc1n[nH]c(=O)n1C(C)C | > 100 | > 100 | > 100 | > 100 | > 100 | > 100 |  | > 100 | > 100 | > 100 | > 100 | > 100 | > 100 | > 100 | > 100 | > 100 | > 100 | > 100 |
| S=C(NNC1=NCCCCN1)Nc1ccccc1 | > 100 | > 100 | > 100 | > 100 |  | 65.8 |  | > 100 | > 100 |  | > 100 | > 100 | > 100 | > 100 | > 100 | > 100 | > 100 |  |
| O=C(CCNC(=O)OCc1ccccc1)OCCCNC(=O)OCc1ccccc1 | > 100 | > 100 |  | > 100 | > 100 | > 100 | > 100 | > 100 | > 100 |  | > 100 | > 100 |  | > 100 | > 100 | > 100 | > 100 | > 100 |
| CC(=O)NC1C(OCc2ccccc2)OC(CO)C(O)C1OCC(=O)NC(C)C(=O)NC(CCC(=O)OCCNC(=O)c1cccc2cc3ccccc3nc12)C(N)=O (configuration not stated) | 48.9 | 66.3 | 62.2 | 51.1 | > 100 | 31.8 | 39.7 | > 100 | > 100 | 70.9 | 43.3 | 69.3 | 30.2 | 67 | 57.8 |  | 31.3 | 59 |
| N#C/C(=C\N1CCNC1=S)C(=O)c1ccc2ccccc2c1 | > 100 | > 100 | > 100 | > 100 | > 100 | > 100 | > 100 | > 100 | > 100 | > 100 | > 100 | > 100 | > 100 | > 100 | > 100 |  | > 100 | > 100 |
| Clc1ccc(OCc2nnc(CCCCCCCCc3nnc(COc4ccc(Cl)cc4)o3)o2)cc1 |  | > 100 | > 100 | > 100 | > 100 | 28.2 | > 100 | > 100 | > 100 | > 100 | > 100 | > 100 | > 100 | > 100 | > 100 |  | > 100 | > 100 |
| C[C@H](C(=O)N1C(=O)O[C@@H](c2ccccc2)[C@H]1C)[C@H](c1ccccc1)N(Cc1ccccc1)OC(=O)c1ccccc1 | > 100 | > 100 |  | > 100 | > 100 | > 100 | > 100 | > 100 | > 100 | 73.7 | > 100 | > 100 | > 100 | > 100 | > 100 | > 100 | 69.2 | > 100 |
| Cc1ccc(-c2n[nH]c(=O)n2N)cc1 | > 100 | > 100 | > 100 | > 100 | > 100 | > 100 |  | > 100 | > 100 | > 100 | > 100 | > 100 | > 100 | > 100 | > 100 | > 100 | > 100 | > 100 |
| Cn1cc(C=C(C#N)C#N)c(=O)n(C)c1=O | > 100 | > 100 | > 100 | > 100 | > 100 | > 100 | > 100 | > 100 | > 100 | > 100 | > 100 | > 100 | > 100 | > 100 | > 100 |  | > 100 | > 100 |
| COc1cccc(N2CCc3c(C)c(C#N)c4nc5ccccc5n4c32)c1 | > 100 | > 100 |  | > 100 | > 100 | > 100 | > 100 |  | > 100 | > 100 | > 100 | > 100 |  | > 100 | > 100 | > 100 | > 100 | > 100 |
| COC(=O)[C@@H]1C[C@H]2[C@H](c3ccccc3Br)[C@@H](OC(C)=O)[C@@H](OCc3ccccc3)ON2O1 | > 100 | > 100 | > 100 | > 100 | > 100 | > 100 | > 100 | > 100 | > 100 | > 100 | > 100 | > 100 | > 100 | > 100 | > 100 | > 100 | > 100 |  |
| CN(C)c1ncc(-c2c[nH]c3ccccc23)nc1-c1c[nH]c2ccccc12 | 13.5 | 3.89 | 10.8 | 5.59 | 11.8 | 12 | 4.11 | 27.5 | 12.9 | 12.8 | 5.73 | 16.9 | 11 | 25 | 4.99 |  | 15.9 | 8.33 |
| S=c1scc(-c2ccc(Cl)cc2)n1OC1CCCC1 | > 100 | > 100 | > 100 | > 100 | > 100 | > 100 | > 100 | 67.7 | 81.6 | 44.6 | > 100 | > 100 | > 100 | > 100 | > 100 |  | 24.4 | > 100 |
| O=C1C=CC(=O)c2c(O)c(Nc3ccc(OC(F)(F)F)cc3)c(Cl)c(O)c21 |  | 7.95 | 2.17 | 1.79 | 2.7 | 0.455 | 1.39 |  | 1.8 | 3.48 | 1.97 | 3.16 | 2.96 | 1.49 | 3.6 | 4.32 | 5.15 |  |
| Cn1c2nc(=Nc3ccc(Cl)cc3)n3ccc4ccccc4c3c2c(=O)n1-c1ccccc1 | > 100 | > 100 | > 100 | > 100 | > 100 | > 100 | > 100 | > 100 | > 100 | > 100 | > 100 | > 100 | > 100 | > 100 | > 100 |  | > 100 |  |
